Legend:
[1] = system: xenografted FaDu head and neck squamous carcinoma cells; assay: In vivo tumour mass size in mice bearing xenografted FaDu cells (benefit); conditions: daily intratumoral EpigenAU/11, intraperitoneal cisplatin on alternating days; treated day 27; vehicle 1.38
Experimental: Data obtained by animal testing, considered in the context of benefit, is the tumour mass size reached at the end of in vivo test for each treatment.
Data were calculated as “Reduction in the size of tumour mass” by the formula:
1−[“Tumour mass size collected from treated animals (day of observation: 27)/Tumour mass size collected from untreated animals (day of observation: 19)]
(§1) The benefit (intended as therapeutic activity) was instead evaluated by taking into consideration the reduction in size of the tumour mass compared to the untreated tumour. For this purpose, immunocompromised mice bearing xenografted FaDu head and neck squamous carcinoma cells were included in the study once tumours reached a volume of 100 mm^3. Mice received daily intratumoral injections of EpigenAU/11 and intraperitoneal cisplatin on alternating days.

[2] = In vivo body weight (potential weight loss) at the end of experimentation; design: species or system mice; conditions: mouse
Experimental: (§2) The risk (intended as side effects) was estimated through the observation of behavioural parameters (impacting the behaviour itself, the locomotor system, muscle strength and nervous reflexes) and through the potential weight loss of the animal.
(§3) Data obtained by animal testing, considered in the context of the risk, are behavioural parameters and body weight loss at the end of experimentation.
The potential weight loss of the treated animals was also assessed.” Data were processed using the formula: […]
as §1

[3] = In vivo observation of behavioural parameters (risk, side effects) in mouse model; design: species or system mice
Description: as §2, §3
The behavioural parameters monitored are listed below: • 1. Loss of Spontaneous activity • 2. Loss of Cleaning • 3. Loss of Curiosity • 4. Loss of Reactivity • 5. Loss of Straightening reflex • 6. Loss of Physical strength • 7. Impairment of Palpebral opening • 8. Palpebral reflex • 9. Tremors • 10. Pallor • 11. Stereotypies • 12. Passivity
The values of the parameters 1-8 are normalized as: “Not treated animal value” (always equal to 0)+“Treated animal value”.
The values of the parameters 9-12 are normalized as: “Not treated animal value”−“Treated animal value”.
as §1

N.N.[Cl][Pt][Cl] [Cisplatin]
Size of tumor masses (Tumor viability), Mean [1]: 0.50 | Body weight (Nutritional and metabolic system), Mean [2]: 29.12 | Cleaning (Behaviour), Mean [3]: 2.90 | Curiosity (Behaviour), Mean [3]: 2.60 | Pallor (Nervous system), Mean [3]: 2.00 | Palpebral opening (Nervous system), Mean [3]: 2.00 | Palpebral reflex (Nervous system), Mean [3]: 2.80 | Passivity (Behaviour), Mean [3]: 1.60 | Physical strenght (Muscle), Mean [3]: 2.70 | Reactivity (Behaviour), Mean [3]: 2.20 | Spontaneous activity (Behaviour), Mean [3]: 2.50 | Stereolipies (Locomotor system), Mean [3]: 0.00 | Straightening reflex (Locomotor system), Mean [3]: 2.60 | Tremors (Nervous system), Mean [3]: 0.80

From patent US20260229370A1, “[…] BENEFIT/RISK ASSESSMENT METHOD SUITABLE FOR THE PHYSIOLOGICAL ACTIVITY OF NATURAL MATRICES-BASED […] OR BENEFICIAL PRODUCTS WITH RESPECT TO THAT OF OTHER PRODUCTS WITH PHARMACOLOGICAL OR NUTRACEUTICAL ACTIVITY BASED ON […] MOLECULES” (Bios-Therapy, Physiological Systems for Health S.p.A., priority 2025, published 2026)
